Laboratory results taken from US20240199587A1, “HETEROCYCLIC COMPOUNDS” (Hoffmann-La Roche Inc., priority 2021, published 2024).

molecular target: T1, MAGL (Homo sapiens, UniProt Q99685); assay: 2-AG assay (MAGL inhibitory activity, hydrolysis of 2-arachidonoylglycerol to arachidonic acid followed by mass spectrometry); format: biochemical; conditions: 8 μM 2-arachidonoylglycerol, 15 min pre-incubation, 30 min incubation at RT, RapidFire MS readout
T1 sequence (Q99685 1-303): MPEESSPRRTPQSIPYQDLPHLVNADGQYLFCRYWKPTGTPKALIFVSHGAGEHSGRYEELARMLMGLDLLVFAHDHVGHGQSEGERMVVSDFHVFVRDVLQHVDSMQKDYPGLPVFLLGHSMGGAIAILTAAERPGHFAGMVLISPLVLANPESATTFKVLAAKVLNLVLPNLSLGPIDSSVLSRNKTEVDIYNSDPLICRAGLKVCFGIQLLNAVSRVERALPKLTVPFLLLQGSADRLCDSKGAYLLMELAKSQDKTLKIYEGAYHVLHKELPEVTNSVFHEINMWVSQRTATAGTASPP
Outline: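 Arachidonic acid released from 8 μM 2-arachidonoylglycerol was quantified by online SPE triple-quadrupole MS (negative ESI, 303.1→259.1), normalised to d8-arachidonic acid internal standard. Reaction ran 30 min at RT after 15 min RT compound pre-incubation with […] MAGL in TRIS/EDTA/Tween-20 buffer, 2.5% DMSO.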

IC50 [nM] | Structure (SMILES)
0.71 | O=C(N1CC2(CC(NS(=O)(=O)c3cccc(C(F)(F)F)c3)C2)C1)N1CC2(CC(n3cnc(C(F)(F)F)n3)C2)C1 [Example 454, 3-(trifluoromethyl)-N-[2-[6-[3-(trifluoromethyl)-1,2,4-triazol-1-yl]-2-azaspiro[3.3]heptane-2-carbonyl]-2-azaspiro[3.3]heptan-6-yl]benzenesulfonamide]
1.25 | CS(=O)(=O)c1ccc(CC2CC3(C2)CN(C(=O)N2CC4(CC(n5cnc(C(F)(F)F)n5)C4)C2)C3)cc1 [Example 455, [6-[(4-methylsulfonylphenyl)methyl]-2-azaspiro[3.3]heptan-2-yl]-[6-[3-(trifluoromethyl)-1,2,4-triazol-1-yl]-2-azaspiro[3.3]heptan-2-yl]methanone]
1.16 | CS(=O)(=O)c1cccc(CC2CC3(C2)CN(C(=O)N2CC4(CC(n5cnc(C(F)(F)F)n5)C4)C2)C3)c1 [Example 456, [6-[(3-methylsulfonylphenyl)methyl]-2-azaspiro[3.3]heptan-2-yl]-[6-[3-(trifluoromethyl)-1,2,4-triazol-1-yl]-2-azaspiro[3.3]heptan-2-yl]methanone]
11 | CS(=O)(=O)c1cncc(CC2CC3(C2)CN(C(=O)N2CC4(CC(n5cnc(C(F)(F)F)n5)C4)C2)C3)c1 [Example 457, [6-[(5-methylsulfonyl-3-pyridyl)methyl]-2-azaspiro[3.3]heptan-2-yl]-[6-[3-(trifluoromethyl)-1,2,4-triazol-1-yl]-2-azaspiro[3.3]heptan-2-yl]methanone]
19.4 | CS(=O)(=O)c1ccc(CC2CC3(C2)CN(C(=O)N2CC4(CC(n5cnc(C(F)(F)F)n5)C4)C2)C3)nc1 [Example 458, [6-[(5-methylsulfonyl-2-pyridyl)methyl]-2-azaspiro[3.3]heptan-2-yl]-[6-[3-(trifluoromethyl)-1,2,4-triazol-1-yl]-2-azaspiro[3.3]heptan-2-yl]methanone]
0.3 | CS(=O)(=O)c1ccc(CC2CC3(C2)CN(C(=O)N2CC4(CC(n5cnc(C(F)(F)F)n5)C4)C2)C3)c(F)c1 [Example 459, [6-[(2-fluoro-4-methylsulfonyl-phenyl)methyl]-2-azaspiro[3.3]heptan-2-yl]-[6-[3-(trifluoromethyl)-1,2,4-triazol-1-yl]-2-azaspiro[3.3]heptan-2-yl]methanone]
0.93 | CS(=O)(=O)c1cc(F)cc(CC2CC3(C2)CN(C(=O)N2CC4(CC(n5cnc(C(F)(F)F)n5)C4)C2)C3)c1 [Example 460, [6-[(3-fluoro-5-methylsulfonyl-phenyl)methyl]-2-azaspiro[3.3]heptan-2-yl]-[6-[3-(trifluoromethyl)-1,2,4-triazol-1-yl]-2-azaspiro[3.3]heptan-2-yl]methanone]
1.79 | CS(=N)(=O)c1cccc(CC2CC3(C2)CN(C(=O)N2CC4(CC(n5cnc(C6CC6)n5)C4)C2)C3)c1 (stereo not shown) [Example 461, [6-(3-cyclopropyl-1,2,4-triazol-1-yl)-2-azaspiro[3.3]heptan-2-yl]-[6-[[3-(methylsulfonimidoyl)phenyl]methyl]-2-azaspiro[3.3]heptan-2-yl]methanone]
2.94 | CS(=N)(=O)c1ccc(CC2CC3(C2)CN(C(=O)N2CC4(CC(n5cnc(C6CC6)n5)C4)C2)C3)cc1 (stereo not shown) [Example 462, [6-(3-cyclopropyl-1,2,4-triazol-1-yl)-2-azaspiro[3.3]heptan-2-yl]-[6-[[4-(methylsulfonimidoyl)phenyl]methyl]-2-azaspiro[3.3]heptan-2-yl]methanone]
2.42 | O=C(N1CC2(CCN(Cc3ccc(C(F)(F)F)cn3)CC2)C1)N1CC2(CC(n3cnc(C4CC4)n3)C2)C1 [Example 463, [6-(3-cyclopropyl-1,2,4-triazol-1-yl)-2-azaspiro[3.3]heptan-2-yl]-[7-[[5-(trifluoromethyl)-2-pyridyl]methyl]-2,7-diazaspiro[3.5]nonan-2-yl]methanone]
5.05 | O=C(N1CC2(CCN(Cc3ccc(C(F)(F)F)nc3)CC2)C1)N1CC2(CC(n3cnc(C4CC4)n3)C2)C1 [Example 464, [6-(3-cyclopropyl-1,2,4-triazol-1-yl)-2-azaspiro[3.3]heptan-2-yl]-[7-[[6-(trifluoromethyl)-3-pyridyl]methyl]-2,7-diazaspiro[3.5]nonan-2-yl]methanone]
3.17 | O=C(N1CC2(CC(CNC3(C(F)(F)F)COC3)C2)C1)N1CC2(CC(n3cnc(C4CC4)n3)C2)C1 [Example 465, [6-(3-cyclopropyl-1,2,4-triazol-1-yl)-2-azaspiro[3.3]heptan-2-yl]-[6-[[[3-(trifluoromethyl)oxetan-3-yl]amino]methyl]-2-azaspiro[3.3]heptan-2-yl]methanone]
1.17 | O=C(N1CC(c2ccc(-c3nnc(C4(C(F)(F)F)CC4)[nH]3)cc2)C1)N1CC2(CC(n3cnc(C4CC4)n3)C2)C1 [Example 466, [6-(3-cyclopropyl-1,2,4-triazol-1-yl)-2-azaspiro[3.3]heptan-2-yl]-[3-[4-[5-[1-(trifluoromethyl)cyclopropyl]-4H-1,2,4-triazol-3-yl]phenyl]azetidin-1-yl]methanone]
2.36 | O=C(N1CC(c2ccc(-c3n[nH]c(C4CC4)n3)cc2)C1)N1CC2(CC(n3cnc(C4CC4)n3)C2)C1 [Example 467, [6-(3-cyclopropyl-1,2,4-triazol-1-yl)-2-azaspiro[3.3]heptan-2-yl]-[3-[4-(5-cyclopropyl-1H-1,2,4-triazol-3-yl)phenyl]azetidin-1-yl]methanone]
0.15 | CS(=O)(=O)c1cc(F)cc(CC2CC3(C2)CN(C(=O)N2CC4(CC(n5cnc(C6CC6)n5)C4)C2)C3)c1 [Example 468, [6-(3-cyclopropyl-1,2,4-triazol-1-yl)-2-azaspiro[3.3]heptan-2-yl]-[6-[(3-fluoro-5-methylsulfonyl-phenyl)methyl]-2-azaspiro[3.3]heptan-2-yl]methanone]
0.48 | O=C(N1CC2(CC(n3cnc(C4CC4)n3)C2)C1)N1CC2(CN(Cc3ccc(S(=O)(=O)C(F)(F)F)cc3)C2)C1 [Example 469, [6-(3-cyclopropyl-1,2,4-triazol-1-yl)-2-azaspiro[3.3]heptan-2-yl]-[6-[[4-(trifluoromethylsulfonyl)phenyl]methyl]-2,6-diazaspiro[3.3]heptan-2-yl]methanone]
0.42 | O=C(N1CC(c2cnc(NCC3(C(F)(F)F)CC3)cn2)C1)N1CC2(CC(n3cnc(C4CC4)n3)C2)C1 [Example 470, [6-(3-cyclopropyl-1,2,4-triazol-1-yl)-2-azaspiro[3.3]heptan-2-yl]-[3-[5-[[1-(trifluoromethyl)cyclopropyl]methylamino]pyrazin-2-yl]azetidin-1-yl]methanone]
0.69 | O=C(N1CC(c2ccc(-c3n[nH]c(C4CCC4)n3)cc2)C1)N1CC2(CC(n3cnc(C4CC4)n3)C2)C1 [Example 471, [3-[4-(5-cyclobutyl-1H-1,2,4-triazol-3-yl)phenyl]azetidin-1-yl]-[6-(3-cyclopropyl-1,2,4-triazol-1-yl)-2-azaspiro[3.3]heptan-2-yl]methanone]
45.3 | O=C(N1CC2(CC(n3cnc(C4CC4)n3)C2)C1)N1CC2(CN(Cc3ccc(C(F)(F)F)nn3)C2)C1 [Example 472, [6-(3-cyclopropyl-1,2,4-triazol-1-yl)-2-azaspiro[3.3]heptan-2-yl]-[6-[[6-(trifluoromethyl)pyridazin-3-yl]methyl]-2,6-diazaspiro[3.3]heptan-2-yl]methanone]
